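Cells were grown in 96-well plates and exposed to each compound for 48 hours at five concentrations; endpoints were interpolated linearly between bracketing concentrations, or set to the highest concentration if not reached. At the TGI there is no net growth.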
Assays:
Experiment in all cases: inhibition of tumour cell growth, NCI panel, 48 h
786-0 renal = tested on: 786-0 renal
DMS 114 small cell lung = tested on: DMS 114 small cell lung
CAKI-1 renal = tested on: CAKI-1 renal
HCT-15 colon = tested on: HCT-15 colon
A498 renal = tested on: A498 renal
TK-10 renal = tested on: TK-10 renal
SK-MEL-2 melanoma = tested on: SK-MEL-2 melanoma
COLO 205 colon = tested on: COLO 205 colon
HOP-62 NSCLC = tested on: HOP-62 NSCLC
LOX IMVI melanoma = tested on: LOX IMVI melanoma
SK-MEL-5 melanoma = tested on: SK-MEL-5 melanoma
U251 CNS = tested on: U251 CNS
KM20L2 colon = tested on: KM20L2 colon
MDA-N = tested on: MDA-N
DU-145 prostate = tested on: DU-145 prostate
HCT-116 colon = tested on: HCT-116 colon
IGROV1 ovarian = tested on: IGROV1 ovarian
SF-268 CNS = tested on: SF-268 CNS
CCRF-CEM leukemia = tested on: CCRF-CEM leukemia
SNB-78 CNS = tested on: SNB-78 CNS
NCI-H522 lung = tested on: NCI-H522 lung
PC-3 prostate = tested on: PC-3 prostate
SW-620 colon = tested on: SW-620 colon
LXFL 529 NSCLC = tested on: LXFL 529 NSCLC
HS 578T breast = tested on: HS 578T breast
HT29 colon = tested on: HT29 colon
OVCAR-8 ovarian = tested on: OVCAR-8 ovarian
A549 NSCLC = tested on: A549 NSCLC
NCI-H226 lung = tested on: NCI-H226 lung
OVCAR-5 ovarian = tested on: OVCAR-5 ovarian
RXF 393 renal = tested on: RXF 393 renal
KM12 colon = tested on: KM12 colon
ACHN renal = tested on: ACHN renal
NCI-H460 lung = tested on: NCI-H460 lung
SF-295 CNS = tested on: SF-295 CNS
DLD-1 colon = tested on: DLD-1 colon
SK-MEL-28 melanoma = tested on: SK-MEL-28 melanoma
OVCAR-3 ovarian = tested on: OVCAR-3 ovarian
UO-31 renal = tested on: UO-31 renal
MDA-MB-435 = tested on: MDA-MB-435
M19-MEL melanoma = tested on: M19-MEL melanoma
SNB-75 CNS = tested on: SNB-75 CNS
NCI-H23 lung = tested on: NCI-H23 lung
SK-OV-3 ovarian = tested on: SK-OV-3 ovarian
HOP-92 NSCLC = tested on: HOP-92 NSCLC
HL-60(TB) leukemia = tested on: HL-60(TB) leukemia
SR leukemia = tested on: SR leukemia
XF 498 CNS = tested on: XF 498 CNS
NCI/ADR-RES ovarian = tested on: NCI/ADR-RES ovarian
MALME-3M melanoma = tested on: MALME-3M melanoma
SF-539 CNS = tested on: SF-539 CNS
MOLT-4 leukemia = tested on: MOLT-4 leukemia
EKVX NSCLC = tested on: EKVX NSCLC
SNB-19 CNS = tested on: SNB-19 CNS
MDA-MB-231 breast = tested on: MDA-MB-231 breast
UACC-62 melanoma = tested on: UACC-62 melanoma
UACC-257 melanoma = tested on: UACC-257 melanoma
T-47D breast = tested on: T-47D breast
M14 melanoma = tested on: M14 melanoma
RPMI-8226 leukemia = tested on: RPMI-8226 leukemia
SN12C renal = tested on: SN12C renal
HCC-2998 colon = tested on: HCC-2998 colon
DMS 273 small cell lung = tested on: DMS 273 small cell lung
OVCAR-4 ovarian = tested on: OVCAR-4 ovarian
K-562 leukemia = tested on: K-562 leukemia

`CCN(CC)CC(C)(C)C(=O)/C=C/c1ccc(/C=C/C(=O)C(C)(C)CN(CC)CC)cc1` gave a TGI (786-0 renal) of 0.411 µM, a TGI (DMS 114 small cell lung) of 0.876 µM and a TGI (CAKI-1 renal) of 1.99 µM. For the same compound, the TGI (HCT-15 colon) was 0.901 µM, the TGI (A498 renal) was 3.49 µM and the TGI (TK-10 renal) was 2.49 µM. For the same compound, the TGI (SK-MEL-2 melanoma) was 3.32 µM, the TGI (COLO 205 colon) was 1.29 µM and the TGI (HOP-62 NSCLC) was 5.01 µM. The TGI (LOX IMVI melanoma) was 1.04 µM, the TGI (SK-MEL-5 melanoma) was 3.7 µM and the TGI (U251 CNS) was 1.57 µM. For the same compound, the TGI (KM20L2 colon) was 2.51 µM, the TGI (MDA-N) was 1.66 µM and the TGI (DU-145 prostate) was 5.29 µM. For the same compound, the TGI (HCT-116 colon) was 0.74 µM, the TGI (IGROV1 ovarian) was 7.04 µM and the TGI (SF-268 CNS) was 2.11 µM. For the same compound, the TGI (CCRF-CEM leukemia) was 0.31 µM, the TGI (SNB-78 CNS) was 4.64 µM and the TGI (NCI-H522 lung) was 0.194 µM. It also gave a TGI (PC-3 prostate) of 1.51 µM, a TGI (SW-620 colon) of 0.523 µM and a TGI (LXFL 529 NSCLC) of 0.417 µM. It also gave a TGI (HS 578T breast) of 4.45 µM, a TGI (HT29 colon) of 0.534 µM and a TGI (OVCAR-8 ovarian) of 0.774 µM. The TGI (A549 NSCLC) was 5.76 µM, the TGI (NCI-H226 lung) was 6.97 µM and the TGI (OVCAR-5 ovarian) was 2.93 µM. The TGI (RXF 393 renal) was 0.928 µM, the TGI (KM12 colon) was 2.16 µM and the TGI (ACHN renal) was 3.09 µM. For the same compound, the TGI (NCI-H460 lung) was 0.755 µM, the TGI (SF-295 CNS) was 2.54 µM and the TGI (DLD-1 colon) was 1.26 µM. For the same compound, the TGI (SK-MEL-28 melanoma) was 2.28 µM, the TGI (OVCAR-3 ovarian) was 1.76 µM and the TGI (UO-31 renal) was 4.96 µM. The TGI (MDA-MB-435) was 2.16 µM, the TGI (M19-MEL melanoma) was 4.23 µM and the TGI (SNB-75 CNS) was 3.44 µM. For the same compound, the TGI (NCI-H23 lung) was 4.73 µM, the TGI (SK-OV-3 ovarian) was 4.08 µM and the TGI (HOP-92 NSCLC) was 1.46 µM. It also gave a TGI (HL-60(TB) leukemia) of 0.22 µM, a TGI (SR leukemia) of 0.758 µM and a TGI (XF 498 CNS) of 1.03 µM. It also gave a TGI (NCI/ADR-RES ovarian) of 6.59 µM, a TGI (MALME-3M melanoma) of 2.79 µM and a TGI (SF-539 CNS) of 2.54 µM. For the same compound, the TGI (MOLT-4 leukemia) was 0.546 µM, the TGI (EKVX NSCLC) was 3.67 µM and the TGI (SNB-19 CNS) was 4.21 µM. It also gave a TGI (MDA-MB-231 breast) of 0.756 µM, a TGI (UACC-62 melanoma) of 4.89 µM and a TGI (UACC-257 melanoma) of 4.26 µM. For the same compound, the TGI (T-47D breast) was 3.21 µM, the TGI (M14 melanoma) was 2.46 µM and the TGI (RPMI-8226 leukemia) was 0.46 µM. It also gave a TGI (SN12C renal) of 1.06 µM and a TGI (HCC-2998 colon) of 1.56 µM.

`CCOC(=O)c1c2cccccc2n2c(=O)cc(C)nc12` was tested, and the TGI (786-0 renal) was > 100 µM, the TGI (CAKI-1 renal) was > 100 µM and the TGI (HCT-15 colon) was > 100 µM. The TGI (DMS 273 small cell lung) was > 100 µM, the TGI (A498 renal) was > 100 µM and the TGI (TK-10 renal) was > 100 µM. The TGI (SK-MEL-2 melanoma) was > 100 µM, the TGI (COLO 205 colon) was > 100 µM and the TGI (HOP-62 NSCLC) was > 100 µM. The TGI (LOX IMVI melanoma) was > 100 µM, the TGI (U251 CNS) was > 100 µM and the TGI (KM20L2 colon) was > 100 µM. For the same compound, the TGI (IGROV1 ovarian) was > 100 µM, the TGI (SF-268 CNS) was > 100 µM and the TGI (CCRF-CEM leukemia) was > 100 µM. For the same compound, the TGI (SNB-78 CNS) was > 100 µM, the TGI (NCI-H522 lung) was > 100 µM and the TGI (SW-620 colon) was > 100 µM. For the same compound, the TGI (OVCAR-4 ovarian) was > 100 µM, the TGI (LXFL 529 NSCLC) was > 100 µM and the TGI (HT29 colon) was > 100 µM. The TGI (OVCAR-8 ovarian) was > 100 µM, the TGI (A549 NSCLC) was > 100 µM and the TGI (NCI-H226 lung) was > 100 µM. For the same compound, the TGI (OVCAR-5 ovarian) was > 100 µM, the TGI (RXF 393 renal) was > 100 µM and the TGI (KM12 colon) was > 100 µM. For the same compound, the TGI (ACHN renal) was > 100 µM, the TGI (NCI-H460 lung) was > 100 µM and the TGI (SF-295 CNS) was > 100 µM. The TGI (SK-MEL-28 melanoma) was > 100 µM, the TGI (OVCAR-3 ovarian) was > 100 µM and the TGI (UO-31 renal) was > 100 µM. The TGI (NCI-H23 lung) was > 100 µM, the TGI (K-562 leukemia) was > 100 µM and the TGI (HL-60(TB) leukemia) was > 100 µM. For the same compound, the TGI (SR leukemia) was > 100 µM, the TGI (SF-539 CNS) was > 100 µM and the TGI (MOLT-4 leukemia) was > 100 µM. The TGI (EKVX NSCLC) was > 100 µM, the TGI (SNB-19 CNS) was > 100 µM and the TGI (UACC-62 melanoma) was > 100 µM. The TGI (UACC-257 melanoma) was > 100 µM, the TGI (M14 melanoma) was > 100 µM and the TGI (RPMI-8226 leukemia) was > 100 µM. For the same compound, the TGI (SN12C renal) was > 100 µM and the TGI (HCC-2998 colon) was > 100 µM.
